Tests used:
[1] = target: T1, 6His-Tev-LRRK2 (1326-2527) (Homo sapiens, UniProt Q5S007); test: LRRK2 AlphaScreen desensitised protein substrate assay; format: biochemical
T1 construct: A LRRK2 cDNA encoding residues 1326-2527 was received from Dundee University; made in house; host or cells: Spodoptera frugiperda (Sf9) insect cells, baculovirus
T1 sequence (Q5S007 1326-2527): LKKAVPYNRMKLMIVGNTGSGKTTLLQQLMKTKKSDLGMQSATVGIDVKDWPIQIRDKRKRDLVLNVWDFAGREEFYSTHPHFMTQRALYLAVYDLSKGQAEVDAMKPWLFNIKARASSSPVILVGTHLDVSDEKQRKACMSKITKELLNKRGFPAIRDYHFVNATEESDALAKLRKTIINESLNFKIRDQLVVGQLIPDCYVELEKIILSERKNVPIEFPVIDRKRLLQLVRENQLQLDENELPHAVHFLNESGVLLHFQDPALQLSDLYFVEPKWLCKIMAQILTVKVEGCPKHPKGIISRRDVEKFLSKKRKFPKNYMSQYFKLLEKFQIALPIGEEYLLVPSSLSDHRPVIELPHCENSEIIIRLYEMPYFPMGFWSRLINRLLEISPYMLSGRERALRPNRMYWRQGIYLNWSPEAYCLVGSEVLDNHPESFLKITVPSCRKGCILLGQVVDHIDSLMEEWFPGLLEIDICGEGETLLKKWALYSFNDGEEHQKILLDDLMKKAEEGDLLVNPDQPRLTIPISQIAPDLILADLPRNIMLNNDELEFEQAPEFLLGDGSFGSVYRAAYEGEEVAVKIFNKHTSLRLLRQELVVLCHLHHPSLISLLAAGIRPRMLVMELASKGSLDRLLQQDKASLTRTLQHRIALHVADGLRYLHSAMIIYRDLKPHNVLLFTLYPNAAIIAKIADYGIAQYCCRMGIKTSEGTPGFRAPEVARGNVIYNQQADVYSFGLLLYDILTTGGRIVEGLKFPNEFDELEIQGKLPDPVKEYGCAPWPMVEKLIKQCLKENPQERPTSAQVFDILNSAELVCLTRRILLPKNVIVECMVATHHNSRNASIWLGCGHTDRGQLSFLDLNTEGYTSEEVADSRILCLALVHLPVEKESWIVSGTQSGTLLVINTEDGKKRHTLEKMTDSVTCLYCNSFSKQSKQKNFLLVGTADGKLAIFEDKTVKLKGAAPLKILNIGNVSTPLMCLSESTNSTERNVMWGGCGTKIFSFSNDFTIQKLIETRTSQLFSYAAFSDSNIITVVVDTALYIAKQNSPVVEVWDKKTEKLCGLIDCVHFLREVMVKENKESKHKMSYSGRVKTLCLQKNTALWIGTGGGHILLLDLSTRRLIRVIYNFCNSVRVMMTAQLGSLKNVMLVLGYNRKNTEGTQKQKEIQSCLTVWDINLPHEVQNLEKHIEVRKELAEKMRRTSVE
Method: (§1) a) 100 nl of a 1:4 serial dilution of test compound with a top final assay concentration of 30 μM is added to certain wells in a low volume 384 well black plate. 100 nl of DMSO is used in certain wells as controls.
b) 3 μl enzyme solution (80 nM purified recombinant 6His-Tev-LRRK2 (1326-2527) in assay buffer: 50 mM Hepes (pH 7.2), 10 mM MgCl2, 150 mM NaCl, 5% glycerol, 0.0025% triton X-100 and 1 mM DTT) is added to certain wells.
Plates are then incubated for a further 1-2 hours at room temperature (incubation time varies depending upon rate and linearity of reaction with differing enzyme batches).
d) 6 μl detection solution (1:250 dilution of AlphaLisa Protein A Acceptor beads (PerkinElmer), 1:64 dilution of AlphaLisa Gluthathione Donor beads (PerkinElmer) and 1:600 dilution (dilution determined on a batch to batch basis) of Phospho-Ezrin (Thr567)/Radixin (Thr564)/Moesin (Thr558) Polyclonal Antibody (New England Biolabs) in a buffer: 50 mM Hepes (pH 7.5), 250 mM NaCl, 60 mM EDTA, 1% PEG and 0.01% Brij 35) is added to each well. Plates are then incubated for a further 2 hours at room temperature in the dark before reading on an EnVision™ plate reader with AlphaScreen HTS turbo option module and AlphaScreen settings. Data is analysed using ActivityBase software (IDBS).
LRRK2 AlphaScreen Desensitised Protein Substrate Assay
This is conducted as described for the LRRK2 alphascreen protein substrate assay, with the following differences: • 1. The concentration of ATP in the substrate solution was 2 mM. • 2. The plates were incubated for 20 minutes at room temperature following addition of the substrate solution. Pharmacological Data

[2] = target: T1, 6His-Tev-LRRK2 (1326-2527); test: LRRK2 peptide substrate assay; format: biochemical; conditions: Biotin-LRRKtide peptide substrate, ATP at Km
Method: Compounds of formula (I) may be tested for in vitro kinase activity in accordance with the following assays, using the non natural, in vitro, substrates moesin and the Longer Biotin-LRRKtide. Moesin and a shorter version of the peptide were identified as substrates in Jaleel et al, (2007, Biochem J, 405: 307-317).
LRRK2 Peptide Substrate Assay
as §1
b) 3 μl enzyme solution (80 nM purified recombinant 6His-Tev-LRRK2 (1326-2527) in assay buffer: 50 mM Hepes (pH 7.2), 10 mM MgCl2, 150 mM NaCl, 5% glycerol, 0.0025% triton X-100 and 1 mM DTT) is added to certain wells. […] Plates are then incubated for a further 1-2 hours at room temperature (incubation time varies depending upon rate and linearity of reaction with differing enzyme batches). d) 6 μl detection solution (50 nM Streptavidin SureLight® APC (PerkinElmer), 4 nM Eu-W1024 labelled anti-rabbit IgG antibody (PerkinElmer), 1:500 dilution (dilution determined on a batch to batch basis) of Phospho-Ezrin (Thr567)/Radixin (Thr564)/Moesin (Thr558) Polyclonal Antibody (New England Biolabs) and 60 mM EDTA in buffer: 40 mM Hepes (pH 7.2), 150 mM NaCl, 0.03% BSA) is added to each well. Plates are then incubated for a further 2 hours at room temperature before reading on a suitable plate reader (Excitation 330 nm, emission 620 nm (Eu) and 665 nm (APC)). Data is analysed using ActivityBase software (IDBS). LRRK2 AlphaScreen Protein Substrate Assay

[3] = excess of ATP present (2 mM ATP), read-out: pIC50 in the LRRK2 alphascreen desensitised protein substrate assay (converted)
[4] = mean pIC50, GST-PS-Moesin (400-577) substrate, 2 mM ATP (excess of ATP present), read-out: LRRK2 alphascreen desensitised protein substrate assay (pIC50) (converted)
[5] = read-out: pIC50 in the LRRK2 peptide substrate assay (converted)
[6] = mean pIC50, read-out: LRRK2 peptide substrate assay (pIC50) (converted)

Structure (SMILES) | IC50 [2, 5] [nM] | IC50 [2, 6] [nM] | IC50 [1, 3] [nM] | IC50 [1, 4] [nM]
Cn1cc(-c2ccc(OCc3ccccc3)c(C(=O)Nc3ccnnc3)c2)cn1 [Example 73, 5-(1-Methyl-1H-pyrazol-4-yl)-2-[(phenylmethyl)oxy]-N-4-pyridazinylbenzamide] | ≤ 10 |  | ≤ 20000 | 
CN1CCC[C@@H]1COc1ccc(OCc2ccccc2)c(C(=O)Nc2cccnc2)c1 [Example 45, 5-({[(2R)-1-Methyl-2-pyrrolidinyl]methyl}oxy)-2-[(phenylmethyl)oxy]-N-3-pyridinylbenzamide] | ≤ 10 |  | ≤ 20000 | 
O=C(Nc1cccnc1)c1cc(OC[C@H]2CCCN2)ccc1OCc1ccccc1 [Example 44, 2-[(Phenylmethyl)oxy]-N-3-pyridinyl-5-{[(2R)-2-pyrrolidinylmethyl]oxy}benzamide] | ≤ 10 |  | ≤ 20000 | 
O=C(Nc1cccnc1)c1cc(-c2ccncc2)ccc1OCc1ccc(F)c(F)c1 [Example 109, 2-{[(3,4-Difluorophenyl)methyl]oxy}-N-3-pyridinyl-5-(4-pyridinyl)benzamide] | ≤ 100 |  | ≤ 20000 | 
O=C(O)CCc1ccc(OCc2ccccc2)c(C(=O)Nc2cccnc2)c1 [Example 88, 3-{4-[(phenylmethyl)oxy]-3-[(3-pyridinylamino)carbonyl]phenyl}propanoic acid] | ≤ 100 |  | > 25100 | 
O=C(Nc1cccnc1)c1cc(Br)ccc1OCc1ccccc1F [Example 58, 5-Bromo-2-{[(2-fluorophenyl)methyl]oxy}-N-3-pyridinylbenzamide] | ≤ 10 |  | ≤ 20000 | 
O=C(Nc1cccnc1)c1cc(CN2CCCC2)ccc1OCc1ccccc1 [Example 70, 2-[(Phenylmethyl)oxy]-N-3-pyridinyl-5-(1-pyrrolidinylmethyl)benzamide] | ≤ 100 |  | ≤ 20000 | 
O=C(Nc1cccnc1)c1cc(-c2ccn[nH]2)ccc1OCc1ccc(F)c(F)c1 [Example 107, 2-{[(3,4-Difluorophenyl)methyl]oxy}-5-(1H-pyrazol-5-yl)-N-3-pyridinylbenzamide] | ≤ 10 |  | ≤ 20000 | 
O=C(Nc1ccnnc1)c1cc(-c2ccncc2)ccc1OCc1ccccc1 [Example 74, 2-[(Phenylmethyl)oxy]-N-4-pyridazinyl-5-(4-pyridinyl)benzamide] | ≤ 10 |  | ≤ 20000 | 
O=C(Nc1cncc(F)c1)c1cc(Br)ccc1OCc1ccccc1 [Example 98, 5-Bromo-N-(5-fluoro-3-pyridinyl)-2-[(phenylmethyl)oxy]benzamide] | ≤ 100 |  | > 25100 | 

Second part, led by results:

IC50 [2, 5] [nM] | IC50 [2, 6] [nM] | Structure (SMILES) | IC50 [1, 3] [nM] | IC50 [1, 4] [nM]
≤ 100 | 12.6 | Cc1nocc1NC(=O)c1cc(-c2cnn(CCN3CCOCC3)c2)ccc1OCc1ccc(F)cc1 [Example 129, 2-([(4-Fluorophenyl)methyl]oxy)-N-(3-methyl-4-isoxazolyl)-5-{1-[2-(4-morpholinyl)ethyl]-1H-pyrazol-4-yl}benzamide] | > 25100 | > 25100
≤ 100 |  | Cn1cc(-c2ccc(OCc3ccc(F)cc3)c(C(=O)Nc3cnoc3)c2)cn1 [Example 134, 2-{[(4-Fluorophenyl)methyl]oxy}-N-4-isoxazolyl-5-(1-methyl-1H-pyrazol-4-yl)benzamide] | ≤ 20000 | 
≤ 100 | 20 | O=C(Nc1cccnc1)c1cc(CN2CCOCC2)ccc1OCc1ccc(F)cc1 [Example 117, 2-{[(4-Fluorophenyl)methyl]oxy}-5-(4-morpholinylmethyl)-N-3-pyridinylbenzamide] | ≤ 20000 | 794
≤ 10 |  | O=C(Nc1ccnnc1)c1cc(-c2ccncc2)ccc1OCc1ccc(F)cc1 [Example 89, 2-{[(4-Fluorophenyl)methyl]oxy}-N-4-pyridazinyl-5-(4-pyridinyl)benzamide] | ≤ 20000 | 
≤ 10 | 7.94 | O=C(Nc1cccnc1)c1cc(-c2cnn(CCN3CCOCC3)c2)ccc1OCc1ccc(F)cc1 [Example 128, 2-{[(4-Fluorophenyl)methyl]oxy}-5-{1-[2-(4-morpholinyl)ethyl]-1H-pyrazol-4-yl}-N-3-pyridinylbenzamide] | ≤ 20000 | 126
≤ 100 | 39.8 | O=C(Nc1cccnc1F)c1cc(C(=O)N2CCOCC2)ccc1OCc1ccc(F)cc1 [Example 123, 2-{[(4-Fluorophenyl)methyl]oxy}-N-(2-fluoro-3-pyridinyl)-5-(4-morpholinylcarbonyl)benzamide] | ≤ 20000 | 2510
≤ 10 |  | Cc1nocc1NC(=O)c1cc(-c2ccncc2)ccc1OCc1ccccc1 [Example 61, N-(3-Methyl-4-isoxazolyl)-2-[(phenylmethyl)oxy]-5-(4-pyridinyl)benzamide] | ≤ 20000 | 
≤ 10 |  | O=C(Nc1cccnc1)c1cc(-c2ccncc2)ccc1OCc1ccc(F)cc1 [Example 90, 2-{[(4-Fluorophenyl)methyl]oxy}-N-3-pyridinyl-5-(4-pyridinyl)benzamide] | ≤ 20000 | 
≤ 10 |  | O=C(Nc1ccnnc1)c1cc(-c2cn[nH]c2)ccc1OCc1ccc(F)cc1 [Example 92, 2-{[(4-Fluorophenyl)methyl]oxy}-5-(1H-pyrazol-4-yl)-N-4-pyridazinylbenzamide] | ≤ 20000 | 
≤ 10 |  | Cn1cc(-c2ccc(OCc3ccc(F)cc3F)c(C(=O)Nc3cccnc3)c2)cn1 [Example 116, 2-{[(2,4-Difluorophenyl)methyl]oxy}-5-(1-methyl-1H-pyrazol-4-yl)-N-3-pyridinylbenzamide] | ≤ 20000 | 
